Three compounds from ChEMBL document CHEMBL3124790, “Antibacterial properties and mode of action of new triaryl butene citrate compounds” (Eur J Med Chem, 2014) can be followed below.

Values after ≈ are worked out from the molar mass of the structure shown. Active and inactive are the calls of the source. The rule behind the calls is not given here.

Data set [1] relates to Escherichia coli. Put plainly: Antimicrobial activity against Escherichia coli MC4100 assessed as damage of inner or outer membranes at 5 times MIC after 5 mins by transmission electron microscopy analysis. The class given is functional, organism-based.
Data set [2] has as its system Escherichia coli. Put plainly: Antimicrobial activity against Escherichia coli ATCC 11229 after 24 hrs by polystyrene micro-assay. The class given is functional. To be noted: ATCC 11229, 24 h.
Data set [3] relates to Escherichia coli. The data set can be described thus: Antimicrobial activity against Escherichia coli MC4100 after 24 hrs by polystyrene micro-assay. The class given is functional. Conditions: MC4100, 24 h.
Data set [4] has as its system Listeria monocytogenes. The data set can be described thus: Antimicrobial activity against Listeria monocytogenes LSD 532 after 24 hrs by polystyrene micro-assay. To be noted: LSD 532, 24 h. In kind it is functional.
Data set [5] concerns Listeria ivanovii. The data set can be described thus: Antimicrobial activity against Listeria ivanovii HPB20 assessed as loss of integrity at 5 times MIC after 5 mins by transmission electron microscopy analysis. In kind it is functional.
For data set [6], the system named is Listeria ivanovii. Put plainly: Antimicrobial activity against Listeria ivanovii HPB28 after 24 hrs by polystyrene micro-assay. The class given is functional. Conditions: HPB28, 24 h.
In data set [7] the test system is Listeria ivanovii. Put plainly: Antimicrobial activity against Listeria ivanovii HPB20 assessed as appearance of swollen and severely damaged morphology at 5 times MIC after 5 mins by transmission electron microscopy analysis. In kind it is functional.
A further data set has as its system Pseudomonas aeruginosa. Put plainly: Antimicrobial activity against Pseudomonas aeruginosa ATCC 15442 after 24 hrs by polystyrene micro-assay. The class given is functional. Conditions: ATCC 15442, 24 h.
The test system of data set [8] is Salmonella enterica subsp. enterica. Put plainly: Antimicrobial activity against Salmonella enterica ATCC 14028 after 24 hrs by polystyrene micro-assay. Conditions: ATCC 14028, 24 h. In kind it is functional.
Data set [9] in a line: Hemolytic activity in erythrocytes (unknown origin) after 1 hr. In kind it is ADME, cell-based, Erythrocyte.
Data set [10] deals with Escherichia coli. Put plainly: Antimicrobial activity against Escherichia coli MC4100 assessed as blurred boundaries and highly altered cell walls at 5 times MIC after 5 mins by transmission electron microscopy analysis. In kind it is functional, organism-based.
In a further data set the test system is Enterococcus faecalis. The data set can be described thus: Antimicrobial activity against Enterococcus faecalis ATCC 27275 after 24 hrs by polystyrene micro-assay. In kind it is functional. Conditions: ATCC 27275, 24 h.
The subject of data set [11] is Listeria ivanovii. Put plainly: Antimicrobial activity against Listeria ivanovii HPB20 assessed as condensed and localized intracellular content at 5 times MIC after 5 mins by transmission electron microscopy analysis. The class given is functional, cell-based.
Another data set concerns Staphylococcus aureus. The data set can be described thus: Antimicrobial activity against Staphylococcus aureus ATCC 6538 after 24 hrs by polystyrene micro-assay. The class given is functional. Conditions: ATCC 6538, 24 h.
For data set [12], the system named is Listeria monocytogenes. Put plainly: Antimicrobial activity against Listeria monocytogenes LMA 1045 after 24 hrs by polystyrene micro-assay. In kind it is functional. Conditions: LMA 1045, 24 h.
The test system of data set [13] is Listeria monocytogenes. Put plainly: Antimicrobial activity against Listeria monocytogenes assessed as induction of Na+ efflux assessed per mg of cell dry weight at 5 times MIC after 30 mins by spectrometry analysis. The class given is functional.
For data set [14], the system named is Listeria monocytogenes. The data set can be described thus: Antimicrobial activity against Listeria monocytogenes assessed as induction of K+ efflux assessed per mg of cell dry weight at 2 to 5 times MIC after 30 mins by spectrometry analysis. In kind it is functional.
Data set [15] relates to Escherichia coli. Put plainly: Antimicrobial activity against Escherichia coli MC4100 assessed as uniform electron density of cytoplasm and formation of mesosome-like structure at 5 times MIC after 5 mins by transmission electron microscopy analysis. In kind it is functional, organism-based.
Data set [16] deals with Listeria monocytogenes. Put plainly: Antimicrobial activity against Listeria monocytogenes assessed as induction of K+ efflux assessed per mg of cell dry weight at MIC after 30 mins by spectrometry analysis. The class given is functional.
The test system of data set [17] is Listeria monocytogenes. Put plainly: Antimicrobial activity against Listeria monocytogenes assessed as induction of K+ efflux assessed per mg of cell dry weight at 2 ug/ml after 30 mins by spectrometry analysis. The class given is functional.
In data set [18] the test system is Listeria monocytogenes. Put plainly: Antimicrobial activity against Listeria monocytogenes assessed as induction of Na+ efflux assessed per mg of cell dry weight at 2 ug/ml after 30 mins by spectrometry analysis. In kind it is functional.

As for `CN(C)CCCOc1ccc(C(=C2CCc3ccccc32)c2ccc(OCCCN(C)C)cc2)cc1`, the outcome with Escherichia coli [1], in the data set with Listeria ivanovii [5], with Listeria ivanovii [7], in the data set on Escherichia coli [10] and with Listeria ivanovii [11] was Active. Further, the minimum inhibitory concentration (MIC) – broadly, the lowest concentration that inhibits growth of the organism – with Escherichia coli [2] was found to be 100 µM (≈ 48.5 µg/mL); in the data set with Escherichia coli [3] it was 100 µM (≈ 48.5 µg/mL); in the data set on Listeria monocytogenes [4], 31 µM (≈ 15 µg/mL); against Listeria ivanovii [6] it was 25 µM (≈ 12.1 µg/mL); in the data set with Pseudomonas aeruginosa it was 2500 µM (≈ 1210 µg/mL); in data set [8], 2500 µM (≈ 1210 µg/mL). The minimum inhibitory concentration (MIC) amounted to 40 µM (≈ 19.4 µg/mL) with Enterococcus faecalis, 31 µM (≈ 15 µg/mL) with Staphylococcus aureus and 62 µM (≈ 30.1 µg/mL) against Listeria monocytogenes [12]. In data set [9], the HC50 (as a rule, the concentration that lyses half of the red blood cells) at 1 h was determined as 68.6 µM.
In the case of `CCC(=C(c1ccc(OCCCN(C)C)cc1)c1ccc(OCCCN(C)C)cc1)c1ccccc1.O=C(O)CC(O)(CC(=O)O)C(=O)O`, the result in the data set with Escherichia coli [1], with Listeria ivanovii [5], with Listeria ivanovii [7], with Escherichia coli [15] and in the data set with Escherichia coli [10] was Active. Also, the minimal inhibitory concentration (MIC) with Escherichia coli [2] is 50 µM; in the data set on Escherichia coli [3], 50 µM; against Listeria monocytogenes [4], 31 µM; in the data set on Listeria ivanovii [6], 25 µM; with Pseudomonas aeruginosa, greater than 5000 µM; in [8], 1250 µM. The minimum inhibitory concentration (MIC) against Enterococcus faecalis was 80 µM; in the data set with Staphylococcus aureus, 31 µM; with Listeria monocytogenes [12], 62 µM. Further, the Activity is on record as 68% with Listeria monocytogenes [13], 344 nmol in the data set with Listeria monocytogenes [14] and 183.74 nmol in the data set with Listeria monocytogenes [16]. In data set [9], this compound came in with an HC50 at 1 h of 67.1 µM.
Take `C=C(NC(=O)[C@@H](NC(=O)[C@H](Cc1cnc[nH]1)NC(=O)[C@@H](NC(=O)[C@H](CO)NC(=O)[C@@H]1CSC(C)[C@@H]2NC(=O)[C@H](C)NC(=O)[C@@H](NC(=O)N(CCCCN)C(=O)[C@H](CCCCN)NC(=O)[C@@H](CCSC)NC(=O)[C@H](CC(N)=O)NC(=O)[C@@H]3CSC(C)[C@H](NC(=O)[C@H](CCCCN)NC(=O)[C@@H]4CSC(C)[C@H](NC(=O)[C@@H]5CSC[C@H](NC(=O)/C(=C/C)NC(=O)[C@@H](N)[C@@H](C)CC)C(=O)N[C@@H](CC(C)C)C(=O)NC(=C)C(=O)N[C@@H](CC(C)C)C(=O)N5)C(=O)N5CCC[C@H]5C(=O)NCC(=O)N4)C(=O)NCC(=O)N[C@@H](C)C(=O)N[C@@H](CC(C)C)C(=O)N[C@H](CCSC)C(=O)NCC(=O)N3)C(C)SC[C@H](NC2=O)C(=O)N[C@@H](Cc2cnc[nH]2)C(=O)N1)[C@@H](C)CC)C(C)C)C(=O)N[C@@H](CCCCN)C(=O)O` (stereo not given in full): the Activity with Listeria monocytogenes [17] was determined as 361.79 nmol; in the data set on Listeria monocytogenes [18] it was 635.96 nmol.
